For orientation: Kd means the free concentration of one partner at which half of the binding sites on the other are occupied at equilibrium, for simple one-to-one binding. A high value points to lower affinity.

Assay [1] is classed as binding. The conditions noted are these: pH 8.
On the set-up of assay [2]: method as in PMID 22488789. Particulars: cited from earlier work.

On to cholera toxin B-subunit [Wild-type], for which, in assay [1], the Kd is 43 ± 8 nM. For the same substance, the “Lewis-y glycan binding (result in words)” value in assay [2] was “very low affinity”.

The values above are taken from article PMC10974167 (Toxins, 2024).
